EC50 data for four compounds are collected here from patent US7893085B2, “Aza-benzothiophenyl compounds and methods of use” (Genentech, Inc, priority 2006, dated 2011).

Usually pEC50 stands for the negative decadic logarithm of the EC50, by convention in mol/L. High values mean a small EC50, low ones a large EC50.

pEC50: −log10 of the molar value.

For test [1], the system named is cellular p-ERK in HCT116 or A375 cells. Briefly: Phospho-ERK cell-based assay (ELISA). The conditions noted are these: Homo sapiens; in either one of the cell lines (HCT116, A375); 2 h or 24 h. Here is the method:
Compounds are tested in a cell-based phospho-ERK ELISA using the following cell lines:
HCT116 human colorectal carcinoma (ATCC)
(§1) A375 human malignant melanoma (ATCC)
Both cell lines are maintained in DMEM/F12 (1:1) media (Gibco) supplemented with 10% FCS at 37° C. in a 5% CO2 humidified incubator.
Cells are seeded in 96-well plates at 2,000 cells/well and after 24 h they are exposed to different concentrations of compounds in 0.83% DMSO. Cells are grown for a further 2 h or 24 h, fixed with formaldehyde (2% final) and permeabilised with methanol. Following blocking with TBST-3% BSA, fixed cells are incubated with primary antibody (anti-phospho ERK from rabbit) over-night at 4° C. Cells are incubated with Propidium Iodide (DNA fluorescent dye) and detection of cellular p-ERK is performed using an anti-rabbit secondary antibody conjugated to the fluorescent Alexa Fluor 488 dye (Molecular probes). The fluorescence is analysed using the Acumen Explorer (lTP Labtech), a laser-scanning microplate cytometer, and the Alexa Fluor 488 signal is normalised to the PI signal (proportional to cell number).
The EC50 is defined as the concentration at which a given compound achieves a signal half way between the baseline and the maximum response. EC50 values are calculated using the XLfit software package (version 2.0.5).
(In general: In an ELISA, binding on a coated surface is turned into a signal by an enzyme label.)

Test [2] relates to HCT116 human colorectal carcinoma or A375 human malignant melanoma cells. Kind of test: Cell proliferation assay (CellTiter-Glo). The conditions noted are these: in either one of the cell lines (HCT116, A375), 72 h. It is filed as cell-based. Here is the method:
Compounds are tested in a cell proliferation assay using the following cell lines:
HCT116 human colbrectal carcinoma (ATCC)
as §1
Both cell lines are maintained in DMEMIF12 (1:1) media (Gibco) supplemented with 10% FCS at 37° C. in a 5% CO2 humidified incubator.
Cells are seeded in 96-well plates at 2,000 cells/well and after 24 hours they are exposed to different concentrations of compounds in 0.83% DMSO. Cells are grown for a further 72 h, and an equal volume of CellTiter-Glo reagent (Promega) is added to each well. This lyses the cells and generates a luminescent signal proportional to the amount of ATP released (and therefore proportional to the number of cells in the well) that can be detected using a multiwell luminometer.
The EC50 is defined as the concentration at which a given compound achieves 50% inhibition of control. EC50 values are calculated using the XLfit software package (version 2.0.5).
For orientation: In ATP-based viability assays light output follows the ATP content of the culture.

With `O=C(NOC[C@H](O)CO)c1sc2ccncc2c1Nc1ccc(I)cc1F` [Example 5, 3-(2-Fluoro-4-iodo-phenylamino)-thieno[3,2-c]pyridine-2-carboxylic acid ((R)-2,3-dihydroxy-propoxy)-amide], the negative logarithm of the EC50 (pEC50) in test [1] and in test [2] was greater than 5.00 in each case.

Consider `O=C(NOCCO)c1sc2ccncc2c1Nc1ccc(I)cc1F` [Example 10, 3-(2-Fluoro-4-iodo-phenylamino)-thieno[3,2-c]pyridine-2-carboxylic acid (2-hydroxyethoxy)-amide], for which the pEC50 in test [1] and in test [2] was greater than 5.00 throughout. In test [1], `O=C(NOCCO)c1sc2c(F)cncc2c1Nc1ccc(I)cc1F` [Example 11, 7-Fluoro-3-(2-fluoro-4-iodo-phenylamino)-thieno[3,2-c]pyridine-2-carboxylic acid (2-hydroxy-ethoxy)-amide] gave a pEC50 greater than 5.00.

In the case of `CSc1ccc(Nc2c(C(=O)NOCCO)sc3ccncc23)c(F)c1` [Example 12, 3-(2-Fluoro-4-methylsulfanyl-phenylamino)-thieno[3,2-c]pyridine-2-carboxylic acid (2-hydroxy-ethoxy)-amide], in test [1], the pEC50 was greater than 5.00.
